Counter-ions that a name gives are not always drawn.
Columns and labels:
[1] = tested on: patients with advanced solid malignancies; settings: ref Goel et al, 2009; cited from earlier work
patients = settings: ref Synold et al, 2005, cited from earlier work
[2] = no reference given; cited from earlier work
[3] = tested on: patients with advanced solid tumours; settings: 4 mg m^−2 cohort; ref Tan et al, 2009; cited from earlier work
[4] = Eribulin plasma pharmacokinetics; format: in vivo, human; settings: for AUC(0-inf) / clearance / Cmax / half-life / Vd: human, plasma, intravenous; for AUC(0-inf): AUC0-inf; for clearance: CL; for Vd: Vss
[5] = tested on: patients with advanced solid tumours; format: in vivo, human; settings: days 1, 8 with cisplatin 75 mg m^−2 day 1, 21-day cycle
[6] = 60 mg, Dose level 3: eribulin mesylate 1.2 with cisplatin 60 mg m^−2, first dose, N=4, mean (s.d.)
[7] = 60 mg, Dose level 5: eribulin mesylate 1.4 with cisplatin 60 mg m^−2, first dose, N=6, mean (s.d.)
[8] = 75 mg, Dose level 6: eribulin mesylate 1.2 with cisplatin 75 mg m^−2, first dose, N=3, mean (s.d.)

SMILES: C=C1C[C@@H]2CC[C@@]34C[C@H]5O[C@H]6[C@@H](O3)[C@H]3O[C@H](CC[C@@H]3O[C@H]6[C@H]5O4)CC(=O)C[C@@H]3[C@@H](OC)[C@@H](C[C@H](O)CN)O[C@H]3C[C@H]3O[C@@H](CC[C@@H]1O2)C[C@@H](C)C3=C [Eribulin mesylate]
- principal DLT [1]: neutropenia
- minor responses (patients; lung, breast, and thyroid): three
- median duration of stable disease (patients; range 2–14 months): 4 months
- patients exhibiting stable disease as the best response (patients): 12 patients
- dose at which grade 3 toxicity first occurred (patients; single agent): 0.5 mg m^−2
- administered dose recovered in urine [2]: < 8%
- patients experiencing febrile neutropenia (dominant DLT) [3]: all three patients
- effect of cisplatin co-administration on the disposition of eribulin mesylate ([4]; compared to previously reported single agent data (Goel et al, 2009; Tan et al, 2009)): no apparent effect
- dose proportionality of mean Cmax and AUC0-inf ([4]; eribulin 1.2–1.4 mg m^−2 with cisplatin): did not increase in a dose-proportional manner
- AUC(0-inf) [4, 6]: 1500 ng·h/mL
- AUC(0-inf) [4, 7]: 1100 ng·h/mL
- clearance [4, 6]: 26.7 mL/min
- clearance [4, 7]: 38.3 mL/min
- Cmax [4, 6]: 466 ng/mL
- Cmax [4, 7]: 508 ng/mL
- half-life ([4]; 60 mg, T1/2, Dose level 3: eribulin mesylate 1.2 with cisplatin 60 mg m^−2, first dose, N=4, mean (s.d.)): 40.8 h
- half-life ([4]; 60 mg, T1/2, Dose level 5: eribulin mesylate 1.4 with cisplatin 60 mg m^−2, first dose, N=6, mean (s.d.)): 36.5 h
- Vd [4, 6]: 51.4 L
- Vd [4, 7]: 77.7 L
- AUC(0-inf) [4, 8]: 1030 ng·h/mL
- clearance [4, 8]: 36.7 mL/min
- Cmax [4, 8]: 695 ng/mL
- half-life ([4]; 75 mg, T1/2, Dose level 6: eribulin mesylate 1.2 with cisplatin 75 mg m^−2, first dose, N=3, mean (s.d.)): 35.5 h
- Vd [4, 8]: 68.4 L
- MTD and recommended phase II dose of eribulin mesylate in combination with cisplatin [5]: 1.2 mg m^−2

From publication PMC4264453 (British Journal of Cancer, 2014)
